Test results as given in patent EP3184514A1, “AUTOPHAGY INHIBITORS” (Deutsches Krebsforschungszentrum, priority 2015, dated 2017).

Columns and labels:
[1] = biological target: T1, LC3B (Homo sapiens, UniProt Q9GZQ8); test: AlphaScreen interaction displacement assay (GST-LC3B / biotin-LIRtide); type: binding; conditions: Table 1-a; n.e. means no effect; read-out: LC3B inhibition cell free IC50
T1 construct: made in house; host or cells: E. coli Rosetta (DE3)
Protocol: The AlphaScreen assay contained 50 mM Tris (pH 7.5), 100 mM NaCl, 0.01% Tween 20, 2 mM DTT, 1 % DMSO and 2-30 nM GST-LC3B and biotin-LIRtide 2-30 nM. The concentrations of GST-LC3B and biotin-LIRtide were experimentally chosen from a cross-titration assay exploring the different combinations of for each batch of protein used and when a new batch of buffer was prepared.
A gene encoding for human LC3B protein inserted in a pET-GST expression vector was used as a template. Rosetta (DE3) competent cells were transformed by started procedure, plated on an LB agar plate with ampicillin (100 µg/ml) and left overnight at 37 °C. Overnight culture was prepared from a single colony and shaken at 180 rpm at 37 °C. LB medium with ampicillin was inoculated with overnight culture (10 ml per 500 ml of LB) and shaken until the optical density at 600 nm (OD600) reached a value of approximately 0.6. Protein expression was then induced with 400 µM IPTG and further incubated for 4 hours. Bacterial culture was centrifuged for 20 minutes at 6000 rpm at 4 °C. The pellet was then resuspended in lysis buffer (20 mM TRIS-HCl pH 7.5, 10 mM EDTA, 5 mM EGTA, 150 mM NaCl, 0.5 % NP40, 1 % Triton X-100, 1 mM DTT, 2 mg/ml lysozyme, 0.05 U/µl benzonase, 1x protease inhibitor cocktail). Lysate was then stored at -20 °C over night. Sample was thawed in water bath and sonicated on ice (40 % amplitude, 30 seconds pulse/30 seconds pause cycle). Lysate was centrifuged at 10000xg at 4 °C for half an hour. Meanwhile, 500 µl of glutathione sepharose beads was equilibrated with lysis buffer and then added to the supernatant. The mixture was incubated and rotated at room temperature for 2 hours. After binding of the protein to the beads, beads were spun down at 500xg at 4 °C for 5 minutes. Pellet was then washed with cold wash buffer at least four times (20 mM Tris-HCl pH 7.5, 10 mM EDTA, 5 mM EGTA, 150 mM NaCl, 1 mM DTT), dried and stored in 5 % glycerol at 4 °C.

[2] = system: PANC1, HCT116, A549; test: LC3B and p62 spots in autophagy-dependent cancer cell lines; type: cell-based; conditions: 1 hr, 100 µM; all three cell lines
Protocol: For screening purposes, cells were seeded in 384 well plates and left over night for attachment. […] For controls, cells were treated with 250 nM torin and/or 100 nM BafA1 for 2 hours.
(§1) Afterwards, medium was removed and 4 % (w/v) paraformaldehyde (PFA) in PBS buffer was added to the cells for 20 minutes, incubated at room temperature. Cells were permeabilized with 0.1 % (v/v) Triton X-100 for 10 min at room temperature and washed with PBS. Cells were blocked with 3 % (w/v) bovine serum albumin (BSA) in PBS for 45 minutes at 37 °C and then incubated with anti-LC3B (PM036, MBL) or anti-p62 (PM045 or M162-3, MBL) primary antibody diluted in 0.3 % BSA (1:2000 or 1:500) for 1.5-2 hours at 37 °C. Cells were washed three times with PBS. Secondary Alexa Fluor 488 - labeled antibodies (A-11008, Invitrogen) were diluted in 0.3 % BSA (1:2500) and incubated on cells for 15 minutes at 37 °C. Cells were washed once with PBS, incubated with DRAQ5 (#4084, Cell Signaling) diluted in PBS (1:5000) for 10 minutes and washed three times with PBS.
384 well plates were then analyzed with an automated confocal microscope Opera (PerkinElmer) enabling high throughput high content screening image analysis. Confocal images were taken at the Institute of Biochemistry II, Goethe University Medical School, Theodor-Stern-Kai 7, 60590 Frankfurt am Main, Germany. […] Signal was detected with a fast gated CCD camera. […]

[3] = system: U2OS cells; test: autophagic flux by confocal microscopy and western blotting; type: cell-based, Human
Protocol: […]. After harvesting, cells were lysed with radioimmunoprecipitation assay (RIPA) buffer (50 mM Tris-HCl, pH 7.5, 150 mM NaCl, 0.5 % deoxycholate, 1 % Triton X-100, 0.1 % SDS and 1x protease inhibitors) and left on ice for 30 minutes. Cell lysates were clarified by centrifugation at 10000xg for 20 min at 4 °C. Protein concentrations of the supernatants were determined by BCA assay and the absorbance was measured at 562 nm. SDS-PAGE and WB was performed.
For screening purposes, cells were seeded in 384 well plates and left over night for attachment. […]. For controls, cells were treated with 250 nM torin and/or 100 nM BafA1 for 2 hours.
as §1
384 well plates were then analyzed with an automated confocal microscope Opera (PerkinElmer) enabling high throughput high content screening image analysis. […] Signal was detected with a fast gated CCD camera. […]
The LC3B protein is a ubiquitin-like protein that can be conjugated to phosphatidylethanolamine (PE) in the membrane of the incipient autophagosome. […] Autophagic flux is often inferred on the basis of LC3B-II turnover, measured by western blot (WB) or immunofluorescence (IF) in the presence and absence of lysosomal degradation. […]

Question: For `Brc1ccc(CSC2=NCN(Cc3cccnc3)CN2)cc1` [Compound I-1, 6-((4-bromobenzyl)thio)-3-(pyridin-3-ylmethyl)-1,2,3,4-tetrahydro-1,3,5-triazine], which IC50 [1] is on record?
Answer: The IC50 was 6 µM.

Question: What about the “number of LC3B and p62 spots” value [2] of the same compound?
Answer: Its value is “increased”.

Question: And the “numbers of LC3B spots and levels of LC3B-II” value ([3]; 100 µM compound together with BafA1 100 nM, compared with single treatment)?
Answer: The value was “did not increased further”.

Question: And the “amount of LC3B-II protein and LC3B spots” value ([3]; 100 µM, 1 hr)?
Answer: The value was “increased”.
